Data reported in US10392398B2, “Inhibitors of Late SV40 Factor (LSF) as cancer chemotherapeutics” (TRUSTEES OF BOSTON UNIVERSITY, priority 2010, dated 2019).
≈ marks a conversion by molar mass, not a printed value. Where “and” joins values, the source holds several entries; their conditions need not be identical. Equal values may be shown once. Read-outs that look alike come from different tables or passages of the source.

How the values were obtained:
[1] = Kinetic solubility, turbidity based assay; type: physicochemical; conditions: PBS buffer, 37 °C, pH 7.2, aqueous buffer, kinetic from dmso stock, 1×PBS pH 7.2, 1% DMSO, read-out: kinetic solubility, concentration at which precipitates first showed
Method: Kinetic solubility was measured via a turbidity based assay method (Kerns, E. et al. Automation in Pharmaceutical Profiling. Journal of Laboratory Automation (2005) 10, 114-123). 198 μL of 1×PBS (137 mM NaCl, 2.7 mM KCl, 10 mM Na2HPO4, 2 mM KH2PO4, pH 7.2) was added to the wells of a 96-well plate. FQI-34 (either dried or air-exposed (9% water as determined by NMR)) was dissolved in DMSO for 30 mM final concentration immediately before testing. The 30 mM stock was further diluted in DMSO appropriately for the desired final concentration to be tested in the solubility assay. 2 μL of the DMSO solutions were added to the 96-well plate such that DMSO was kept to 1%. The plate was sealed and gently shaken, and allowed to incubate at 37° C. for 2 hours, after which the absorbance at 620 nm was taken. The concentration at which the absorbance was greater than or equal to 0.01 absorbance units was taken as the precipitation point.

[2] = Pharmacokinetic analysis in rat plasma; type: in vivo; conditions: for Vd: read-out: VDss; for bioavailability: read-out: % Bioavailability F
Method: The purpose of the study was to measure the concentration of FQI-34 in rat plasma samples. The study was performed under non-GLP conditions. All work was performed with appropriate local health regulation and ethical approval. Plasma samples were taken at 0.08, 0.25, 0.5, 1, 2, 4, 8, and 24 hours. Plasma samples were crashed with three volumes of methanol containing an analytical internal standard (propranolol/bucetin/diclofenac). Samples were then centrifuged to remove precipitated protein, and the supernatant was analyzed by LC-MS/MS using a Waters Xevo TQ mass spectrometer coupled with an Acuity HPLC and a CTC PAL chilled autosampler, all controlled by MassLynx software (Waters). The analyte signal was optimized prior to analysis. After separation on a C18 reverse phase HPLC column (Waters Acquity HSS T3 2.1×50 mm 1.8 μM) using an acetonitrile-water gradient system, peaks were analyzed by mass spectrometry (MS) using ESI ionization in MRM mode. All plasma samples were compared to a calibration curve prepared in rat blank plasma.
Male Sprague-Dawley rats were obtained from a commercial source and housed in an AAALAC-approved facility until dosing. For IV dosing, FQI-34 was dissolved in 10% ethanol/16% PEG-400/74% saline at 0.4 mg/mL and in a 1% methylcellulose/0.5% Tween-80 suspension at 10 mg/mL for PO dosing. Three rats per group were dosed by a single IV bolus (10 mL/kg) or PO (10 mL/kg).
Plasma PK-parameters were independently verified and interpreted using PK-solver: An Excel add-In (Zhang, Y. et al. PKSolver: An add-in program for pharmacokinetic and pharmacodynamic data analysis in Microsoft Excel. Comput. Methods Programs Biomed. (2010) 99, 306-314), via a non-compartmental analysis using the linear-trapezoidal method (Fan, J. Pharmacokinetics. Biochemical Pharmacology (2014) 87, 93-120).

[3] = male, Sprague-Dawley, rat, plasma, iv, 4 mg/kg, rat plasma, IV 4 mg/kg, AVERAGE
[4] = male, Sprague-Dawley, rat, plasma, iv, 4 mg/kg, rat plasma, IV 4 mg/kg, individual rats A, B, C
[5] = rat plasma, IV 4 mg/kg, individual rats A, B, C, 4 mg/kg
[6] = rat plasma, PO 100 mg/kg, individual rats A, B, C, 100 mg/kg
[7] = rat, IV 4 mg/kg, individual rats A, B, C, 4 mg/kg

Q: With `CCOc1cc(N(C)C)ccc1C1CC(=O)Nc2cc3c(cc21)OCO3` (centres unmarked) [FQI-34, 8-(4-(dimethylamino)-2-ethoxyphenyl)-7,8-dihydro-[1,3]dioxolo[4,5-g]quinolin-6(5H)-one] as the compound, how does the solubility kinetic at 2 h ([1]; air-exposed (9% water)) read?
A: 100 µM (≈ 35.4 µg/mL)

Q: What about the solubility kinetic at 2 h ([1]; dry) of the same compound?
A: 150 µM (≈ 53.2 µg/mL)

Q: And the clearance ([2]; male, Sprague-Dawley, rat, plasma, iv, 4 mg/kg, IV 4 mg/kg, AVERAGE)?
A: 73 mL/min/kg

Q: And the clearance ([2]; male, Sprague-Dawley, rat, plasma, iv, 4 mg/kg, IV 4 mg/kg, individual rats A, B, C)?
A: 65 mL/min/kg

Q: And the AUC(0-inf) [2, 3]?
A: 935 ng·h/mL

Q: What about the half-life [2, 3] of the same compound?
A: 48.6 min

Q: And the C0 ([2]; male, Sprague-Dawley, rat, plasma, iv, 4 mg/kg, rat plasma, IV 4 mg/kg, AVERAGE, read-out: C0)?
A: 423 ng/mL

Q: What about the Cmax ([2]; male, Sprague-Dawley, rat, plasma, iv, 4 mg/kg, rat plasma, IV 4 mg/kg, AVERAGE, read-out: Cmax) of the same compound?
A: 552 ng/mL

Q: What about the Tmax ([2]; male, Sprague-Dawley, rat, plasma, iv, 4 mg/kg, rat plasma, IV 4 mg/kg, AVERAGE, read-out: Tmax) of the same compound?
A: 0.42 h

Q: What about the AUC(0-inf) [2, 4] of the same compound?
A: 1020 ng·h/mL

Q: And the half-life [2, 4]?
A: 43.8 min

Q: And the C0 ([2]; male, Sprague-Dawley, rat, plasma, iv, 4 mg/kg, rat plasma, IV 4 mg/kg, individual rats A, B, C, read-out: C0)?
A: 434 ng/mL

Q: What about the Cmax ([2]; male, Sprague-Dawley, rat, plasma, iv, 4 mg/kg, rat plasma, IV 4 mg/kg, individual rats A, B, C, read-out: Cmax) of the same compound?
A: 545 ng/mL

Q: What about the Tmax ([2]; male, Sprague-Dawley, rat, plasma, iv, 4 mg/kg, rat plasma, IV 4 mg/kg, individual rats A, B, C, read-out: Tmax) of the same compound?
A: 0.5 h

Q: What about the Vd ([2]; male, Sprague-Dawley, rat, plasma, iv, 4 mg/kg, rat, IV 4 mg/kg, AVERAGE) of the same compound?
A: 5.1 L/kg

Q: What about the Vd ([2]; male, Sprague-Dawley, rat, plasma, iv, 4 mg/kg, rat, IV 4 mg/kg, individual rats A, B, C) of the same compound?
A: 4.6 L/kg

Q: And the AUC(0-inf) ([2]; male, Sprague-Dawley, rat, plasma, po, 100 mg/kg, rat plasma, PO 100 mg/kg, AVERAGE)?
A: 4960 ng·h/mL

Q: And the Cmax ([2]; male, Sprague-Dawley, rat, plasma, po, 100 mg/kg, rat plasma, PO 100 mg/kg, AVERAGE, read-out: Cmax)?
A: 526 ng/mL

Q: And the Tmax ([2]; male, Sprague-Dawley, rat, plasma, po, 100 mg/kg, rat plasma, PO 100 mg/kg, AVERAGE, read-out: Tmax)?
A: 2.7 h

Q: What about the AUC(0-inf) ([2]; male, Sprague-Dawley, rat, plasma, po, 100 mg/kg, rat plasma, PO 100 mg/kg, individual rats A, B, C) of the same compound?
A: 4900 ng·h/mL

Q: And the Cmax ([2]; male, Sprague-Dawley, rat, plasma, po, 100 mg/kg, rat plasma, PO 100 mg/kg, individual rats A, B, C, read-out: Cmax)?
A: 500 ng/mL

Q: And the Tmax ([2]; male, Sprague-Dawley, rat, plasma, po, 100 mg/kg, rat plasma, PO 100 mg/kg, individual rats A, B, C, read-out: Tmax)?
A: 4 h

Q: What about the bioavailability ([2]; male, Sprague-Dawley, rat, plasma, po, 100 mg/kg, rat, PO 100 mg/kg, AVERAGE) of the same compound?
A: 21%

Q: And the bioavailability ([2]; male, Sprague-Dawley, rat, plasma, po, 100 mg/kg, rat, PO 100 mg/kg, individual rats A, B, C)?
A: 21%

Q: What about the “AUC(0-∞)” value [2, 5] of the same compound?
A: 759 ng·h/mL and 1028 ng·h/mL

Q: What about the “C0” value [2, 5] of the same compound?
A: 446 ng/mL and 390 ng/mL

Q: What about the “Cmax” value [2, 5] of the same compound?
A: 548 ng/mL and 564 ng/mL

Q: And the “T1/2” value [2, 5]?
A: 43.2 min and 59.4 min

Q: And the “Tmax” value [2, 5]?
A: 0.25 h

Q: And the “AUC(0-∞)” value [2, 6]?
A: 4026 ng·h/mL and 5936 ng·h/mL

Q: And the “Cmax” value [2, 6]?
A: 501 ng/mL and 577 ng/mL

Q: And the “Tmax” value [2, 6]?
A: 2.0 h

Q: What about the “CL” value [2, 7] of the same compound?
A: 88 mL/min/kg

Q: What about the “VDss” value [2, 7] of the same compound?
A: 5.4 L/kg and 5.3 L/kg

Q: And the “% Bioavailability F” value ([2]; rat, PO 100 mg/kg, individual rats A, B, C, 100 mg/kg)?
A: 17% and 25%
